Columns and labels:
mouse erythrocytes = assay: Hemolytic assay; type: cell-based; conditions: 12.5 μg/mL; 2.5% (v/v) mouse erythrocytes in PBS, 30 min at 37 °C, absorbance at 540 nm; at least three independent experiments in triplicate
Description: This experiment was approved by the Institutional Animal Care and Use Committee (IACUC) of the National Institute of Agricultural Sciences (approval number: NAS-202014). The hemolytic activity of the peptides was determined by monitoring the release of hemoglobin from mouse erythrocytes at 540 nm. For the hemolytic assay, 20 μL of each peptide solution at a predetermined concentration was added to 180 μL of a 2.5% (v/v) suspension of mouse erythrocytes in phosphate-buffered saline (PBS). Melittin (Sigma, USA), a hemolytic and α-helical peptide isolated from bee venom, was used as the positive control. This mixture was incubated for 30 min at 37 °C, and 600 μL of PBS was then added to each tube. After 3 min of centrifugation at 10,000× g, the supernatant was removed, and the absorbance was measured at 540 nm. Evaluations were made from the results of at least three independent experiments, each carried out in triplicate.

[1] = test system: Gram-positive and Gram-negative bacteria; conditions: effect more pronounced in Gram-negative strains; cited from earlier work
Source text: (§1) Papilio xuthus (P. xuthus), commonly known as the swallowtail butterfly, is found in the far east Asian regions of Korea, Japan, China, Taiwan, and Myanmar. Papiliocin is the 37 residue α-helical cecropin-like AMP isolated from an immune challenged larvae of swallowtail butterfly. […] Additionally, the antibacterial and antifungal activity of papiliocin is observed in multidrug- resistant bacterial and fungal strains, respective ...

mammalian cells = conditions: cited from earlier work
Source text: as §1

[2] = cited from earlier work
Source text: as §1

Compound: CC[C@H](C)[C@H](NC(=O)CN)C(=O)NCC(=O)N[C@@H](C)C(=O)N[C@H](C(=O)N[C@@H](CC(C)C)C(=O)N[C@@H](CCCCN)C(=O)N[C@H](C(=O)N[C@@H](CC(C)C)C(=O)N[C@H](C(=O)N[C@H](C(=O)NCC(=O)N[C@@H](CC(C)C)C(=O)N1CCC[C@H]1C(=O)N[C@@H](C)C(=O)N[C@@H](CC(C)C)C(=O)N[C@H](C(=O)N[C@@H](CO)C(=O)N[C@@H](Cc1c[nH]c2ccccc12)C(=O)N[C@H](C(=O)N[C@@H](CCCCN)C(=O)N[C@@H](CCCNC(=N)N)C(=O)N[C@@H](CCCCN)C(=O)N[C@@H](CCCNC(=N)N)C(=O)N[C@@H](CCC(N)=O)C(=O)N[C@@H](CCC(N)=O)C(N)=O)[C@@H](C)CC)[C@@H](C)CC)[C@@H](C)O)[C@@H](C)O)C(C)C)C(C)C [Melittin]
- hemolysis of mouse red blood cells (mouse erythrocytes): 92%

Compound: Papiliocin
- bactericidal activity [1]: bactericidal activity against both Gram-positive and Gram-negative bacteria
- toxicity toward mammalian cells (mammalian cells): non-toxicity toward mammalian cells
- anti-inflammatory activity [2]: anti-inflammatory activity
